The test system of assay [1] is SA1 (DNA, aptamer) ACGACCTGACTTCCCATGGGATCTTCACTTAAATGGTCGT
Nature of the assay: fluorescence enhancement. Conditions: 100 mM Na+, 1 mM Mg2+ (Figure 2 legend; methods: 5 mM); 10 mM MES, pH 6.0; 1 μM DNA, 2 μM thioflavin T; described as nonspecific.

For assay [2] the test system is unchanged. As to the kind of experiment: ThT fluorescence displacement titration. The note with it: 100 mM Na+, pH 6.0, 1 μM DNA; for binding: 1 mM Mg2+, MES, 2 μM thioflavin T, 30 μM compound.
The test system is the same in assay [3]. Nature of the assay: ITC. The note with it: 100 mM Na+, 5 mM Mg2+; 10 mM MES, pH 6.0, 25°C; one-site fit; 20 μM aptamer.
Assay [4] concerns SA2 (DNA, aptamer) ACGACGGGGGACCGGAAACAAGTGCAAAACGCTTCGTCGT
Nature of the assay: ThT fluorescence displacement titration. The note with it: 100 mM Na+, 1 mM Mg2+ (Figure 2 legend; methods: 5 mM); 10 mM MES, pH 6.0; apparent; tracer 2 μM thioflavin T; signal change only about 20%.

`Cc1ccc2c(c1)sc(-c1ccc(N(C)C)cc1)[n+]2C`: in assay [1], the binding result was “yes”.
For `O=C(O)c1ccc(O)cc1`, the binding result in assay [2] was “weak”.
For the compound `O=C(O)c1ccccc1O`, the Kd in assay [3] came out at 26.7 ± 5.6 µM; in assay [2] (1 mM Mg2+ (Figure 2 legend; methods: 5 mM), 10 mM MES, apparent, tracer 2 μM thioflavin T), 5.8 µM; in assay [4], 11 µM.
Turning to `CC(=O)Oc1ccccc1C(=O)O`, the binding result in assay [2] was “no”.

The values are drawn from article PMC12118186 (2023).
